Assay results taken from US20180271097A1, “HETEROCYCLIC TRIFLUOROALKENYL COMPOUNDS HAVING A NEMATOCIDAL ACTIVITY, THEIR AGRONOMIC COMPOSITIONS AND USE THEREOF” (ISAGRO S.P.A., priority 2015, published 2018).

Assays:
Meloidogyne spp. [1] = test: Nematocidal activity against Meloidogyne spp., application 7 days before transplantation (tomato in pots); assay type: in vivo; conditions: tomatoes, 4,000 g/hectare, treatment 7 days before transplantation; for Root development: 60 days after transplantation, 100% = development of comparative healthy root; for Height of plant (cm) / Gall index (scale 0-10): assessment 60 days after transplantation; for Gall index (scale 0-10): Bridge and Page scale, 0 = 0% affected root, 10 = 100% infested root
Experimental: Determination of the Nematocidal Activity Against Meloidogyne Spp. (Application 7 Days Before Transplantation)
(§1) The tests, aimed at testing the nematocidal activity of the product under consideration, were carried out using inocula taken from a breeding of Meloidogyne spp. maintained on tomato and tobacco plants in pots and grown in a greenhouse.
(§2) In order to perform the experiments, portions of roots having a large number of galls, and ground, in which larvae are present, starting from the second stage of age, were collected from the infested pots.
(§3) New pots having a diameter of 15 cm were half-filled with sterile earth. The portions of infested roots, previously cleaned, were positioned on the same in order to correctly evaluate the degree of infestation and ensure that each pot contained the same nematic charge. 200-300 g of infested earth were then added and subsequently covered with a thin layer of sterile earth.
(§4) The treatment was effected by pouring, onto the surface of the ground, 100 ml of solution in which the product to be tested was dissolved.
(§5) Tomato seedlings at a stage of two-three true leaves were transplanted into the pots thus prepared. Different tomato cultivars were adopted, having a different sensitivity to the parasite and with different growth rates. In particular, an ornamental variety (cv Microtom) was used for evaluating the final production, whose seedlings have reduced dimensions and are capable of reaching maturity of the fruit in pots and under greenhouse conditions, in about two months.
The evaluation of the product under consideration was effected by treating the pots 7 days before transplantation (according to what is indicated in the label of the commercial reference product NIMITZ® (Fluensulfone)).
The product was evaluated considering the possible phytotoxic effects that can jeopardize the development of the plant (a zero-ten scale was used wherein: zero=no symptoms, 10=plant destroyed) and the effectiveness with respect to nematodes.
(§6) The capacity of limiting the parasite was detected, at a distance of 30 and 60 days after transplanting, considering the development of the root system (wherein 100% is the development reached by the comparative healthy root) and the presence of galls on the roots. The presence of galls in the roots was estimated using the infestation scale proposed by Bridge and Page, in which the value zero corresponds to 0% of affected root and the value of 10 corresponds to 100% of infested root.
Table 2 indicates the results relating to the effectiveness of Compounds 1, 2 and 22 and Compounds CR1, CR2, CR3 on tomatoes at a dosage of 4,000 g/hectare, effecting the assessment 60 days after the transplantation.

Meloidogyne spp. [2] = test: Nematocidal activity against Meloidogyne spp., application at the moment of transplantation (tomato in pots); assay type: in vivo; conditions: tomatoes, 4,000 g/hectare, 1 treatment at the moment of transplantation; for Root development: 60 days after transplantation, 100% = healthy root; for Gall index (scale 0-10) / Weight of plant: survey 60 days after transplantation
Experimental: as §1, §2, §3, §4, §5, §6
Determination of the Nematocidal Activity Against Meloidogyne Spp. (Application at the Moment of Transplantation)
The same experimental procedure as Example 4 was adopted for evaluating the nematocidal activity of the products under examination, except for the fact that this evaluation was effected by applying the product at the moment of transplantation.
Tables 3 and 4 indicate the results relating to the effectiveness of compounds 9, 10, 71, 75, 76 and the reference compound CR1 on tomatoes at a dose of 4,000 g/hectare effecting the survey 60 days after transplantation.

Meloidogyne spp. [3] = test: Nematocidal activity against Meloidogyne spp., application with already cultivating crop (tomato in pots); assay type: in vivo; conditions: tomatoes, 4,000 g/hectare, repeated treatment after transplantation (already cultivating crop); for Root development: 60 days after transplantation, 100% = healthy root; for Gall index (scale 0-10) / Weight of plant: survey 60 days after transplantation
Experimental: as §1, §2, §3, §4, §5, §6
Determination of the Nematocidal Activity Against Meloidogyne Spp. (Application with Already Cultivating Crop)
The same experimental procedure as Example 4 was adopted for evaluating the nematocidal activity of the products under examination, except for the fact that this evaluation was effected by applying the product during the development of the seedlings (according to what is indicated in the label of the commercial reference product VYDATE® (Oxamil)).
Table 5 indicates the results relating to the effectiveness of compounds 1, 2, 6 and the compound CR1 on tomatoes at a dose of 4,000 g/hectare effecting the survey 60 days after transplantation.

tomatoes = test: Phytotoxicity on tomatoes, application with already cultivating crop; assay type: in vivo, tomato; conditions: zero = no symptoms, 10 = plant destroyed
Experimental: The product was evaluated considering the possible phytotoxic effects that can jeopardize the development of the plant (a zero-ten scale was used wherein: zero=no symptoms, 10=plant destroyed) and the effectiveness with respect to nematodes. Table 6 indicates the results relating to phytotoxicity on tomatoes applying compounds 1, 2, 6, 9, 71, 75, 76 and CR1 with already cultivating crop: […]

SMILES | Root development (Meloidogyne spp. [1]) [%] | Height of plant (cm) (Meloidogyne spp. [1]) | Gall index (scale 0-10) (Meloidogyne spp. [1]) | Root development (Meloidogyne spp. [2]; Table 3 test) [%] | Gall index (scale 0-10) (Meloidogyne spp. [2]; Table 3 test) | Weight of plant (Meloidogyne spp. [2]; Table 3 test) [g] | Root development (Meloidogyne spp. [2]; Table 4 test) [%] | Gall index (scale 0-10) (Meloidogyne spp. [2]; Table 4 test) | Weight of plant (Meloidogyne spp. [2]; Table 4 test) [g] | Root development (Meloidogyne spp. [3]) [%] | Gall index (scale 0-10) (Meloidogyne spp. [3]) | Weight of plant (Meloidogyne spp. [3]) [g] | Phytotoxicity (scale 0-10) (tomatoes)
O=S(=O)(CCC(F)=C(F)F)c1ncc(Cl)s1 [CR1, 5-chloro-2-(3,4,4-trifluoro-3-butenylsulfonyl)-thiazole, reference compound] | 70 | 71 | 2.0 | 60 | 1.5 | 62 | 80 | 1.0 | 50 | 32 | 1.5 | 25 | 3
Cc1nnc(SCCC(F)=C(F)F)s1 [CR2, 2-(3,4,4-trifluoro-3-butenylthio)-5-methyl-1,3,4-thiadiazole, reference compound] | 70 | 60 | 2.0 | – | – | – | – | – | – | – | – | – | –
Cc1nnc(S(=O)(=O)CCC=C(F)F)s1 [CR3, 2-(4,4-difluoro-3-butenylsulfonyl)-5-methyl-1,3,4-thiadiazole, reference compound] | 75 | 70 | 1.5 | – | – | – | – | – | – | – | – | – | –
Cc1nnc([S+]([O-])CCC(F)=C(F)F)s1 (stereo not shown) [Nr 1, 2-(3,4,4-trifluoro-3-butenylsulfinyl)-5-methyl-1,3,4-thiadiazole] | 95 | 75 | 1.0 | – | – | – | – | – | – | 100 | 1.0 | 36 | 0
Cc1nnc(S(=O)(=O)CCC(F)=C(F)F)s1 [Nr 2, 2-(3,4,4-trifluoro-3-butenylsulfonyl)-5-methyl-1,3,4-thiadiazole] | 95 | 76 | 1.0 | – | – | – | – | – | – | 100 | 0.0 | 33 | 0
CC(C)c1nnc(S(=O)(=O)CCC(F)=C(F)F)s1 [Nr 6] | – | – | – | – | – | – | – | – | – | 95 | 2.0 | 40 | 0
CC(C)Cc1nnc([S+]([O-])CCC(F)=C(F)F)s1 (stereo not shown) [Nr 9] | – | – | – | 70 | 2.0 | 116 | – | – | – | – | – | – | 0
CC(C)Cc1nnc(S(=O)(=O)CCC(F)=C(F)F)s1 [Nr 10] | – | – | – | 75 | 2.0 | 88 | – | – | – | – | – | – | –
O=S(=O)(CCC(F)=C(F)F)c1nnc(Cl)s1 [Nr 22, 2-(3,4,4-trifluoro-3-butenylsulfonyl)-5-chloro-1,3,4-thiadiazole] | 90 | 73 | 1.5 | – | – | – | – | – | – | – | – | – | –
CC1(C)CC([S+]([O-])CCC(F)=C(F)F)=NO1 (stereo not shown) [Nr 75] | – | – | – | – | – | – | 100 | 1.0 | 50 | – | – | – | 0
CC1(C)CC(S(=O)(=O)CCC(F)=C(F)F)=NO1 [Nr 76] | – | – | – | – | – | – | 100 | 1.5 | 51 | – | – | – | 0
